Key:
[1] = biological target: T1, pseudo-kinase domain (JH2, amino-acids 536-812 with 3 surface mutations W659A, W777A, F794H) of human Wild Type JAK2 (Homo sapiens, UniProt O60674, F794H/W659A/W777A); assay: JAK2 LanthaScreen JH2-WT binding assay; details: 50 nM tracer, 1 hour at 25° C., read-out: JH2 BIND WT IC50
T1 construct: pseudo-kinase domain (JH2, amino-acids 536-812 with 3 surface mutations W659A, W777A, F794H); His (C); Avi (biotinylated) (C); purchased BPS Bioscience 79463; host or cells: baculovirus expression system
T1 sequence (O60674 536-812 W659A/W777A/F794H): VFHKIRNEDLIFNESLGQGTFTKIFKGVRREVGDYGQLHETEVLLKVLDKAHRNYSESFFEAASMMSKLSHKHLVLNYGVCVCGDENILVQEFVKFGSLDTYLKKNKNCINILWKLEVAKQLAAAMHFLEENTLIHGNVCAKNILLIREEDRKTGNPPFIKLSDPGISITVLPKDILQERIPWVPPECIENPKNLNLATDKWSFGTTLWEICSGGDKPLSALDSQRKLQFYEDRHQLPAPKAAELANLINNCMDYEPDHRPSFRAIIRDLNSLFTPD
Protocol: Example B. JAK2 LanthaScreen JH2-WT Binding Assay
(§1) JAK2 JH2-WT binding assay utilizes pseudo-kinase domain (JH2, amino-acids 536-812 with 3 surface mutations W659A, W777A, F794H) of human Wild Type JAK2 expressed as C-terminal His-Avi-tagged, biotinylated protein in a baculovirus expression system (BPS Bioscience, Catalog #79463). The assay was conducted in black 384-well polystyrene plates in a final reaction volume of 20 μL. JAK2 JH2-WT (0.145 nM) was incubated with compounds (100 nL serially diluted in DMSO) in the presence of 50 nM Fluorescent JAK2-JH2 Tracer (MedChem Express Catalog #HY-102055) and 0.25 nM Streptavidin-Tb cryptate (Cisbio Part #610SATLB) in assay buffer (50 mM Tris, pH=7.5, 10 mM MgCl2, 0.01% Brij-35, 0.1% BSA, 1 mM EGTA, 5% Glycerol and 5 mM DTT). Non-specific binding was accessed in the presence of 2 mM ATP. After incubation for 1 hour at 25° C., LanthaScreen signals were read on a PHERAstar FS plate reader (BMG LABTECH). Data was analyzed with IDBS XLfit and GraphPad Prism 5.0 software using a four parameter dose response curve to determine IC50 for each compound.

[2] = biological target: T2, pseudo-kinase domain (JH2, amino-acids 536-812 with 3 surface mutations W659A, W777A, F794H) of human V617F mutant JAK2 (Homo sapiens, UniProt O60674, F794H/V617F/W659A/W777A); assay: JAK2 LanthaScreen JH2-V617F binding assay; details: 50 nM tracer, 1 hour at 25° C., read-out: JH2 BIND V617F IC50
T2 construct: pseudo-kinase domain (JH2, amino-acids 536-812 with 3 surface mutations W659A, W777A, F794H); His (C); Avi (biotinylated) (C); purchased BPS Bioscience 79498; host or cells: baculovirus expression system
T2 sequence (O60674 536-812 V617F/W659A/W777A/F794H): as the sequence (O60674 536-812 W659A/W777A/F794H) above, with V82F counted along it
Protocol: Example C. JAK2 LanthaScreen JH2-V617F Binding Assay
as §1, with “JH2-V617F” for “JH2-WT”, “V617F mutant” for “Wild Type”, “#79498).” for “#79463).”, “JH2-V617F (0.26” for “JH2-WT (0.145”

[3] = biological target: T3, catalytic domain (JH1, amino acids 826-1132) of human JAK2 (Homo sapiens, UniProt O60674); assay: JAK2 LanthaScreen JH1 binding assay; details: 50 nM tracer, 2 hours at 25° C., read-out: JH1 BIND IC50
T3 construct: catalytic domain (JH1, amino acids 826-1132) of human JAK2; FLAG (N); purchased Carna Biosciences 08-445-20N; host or cells: baculovirus expression system
T3 sequence (O60674 826-1132): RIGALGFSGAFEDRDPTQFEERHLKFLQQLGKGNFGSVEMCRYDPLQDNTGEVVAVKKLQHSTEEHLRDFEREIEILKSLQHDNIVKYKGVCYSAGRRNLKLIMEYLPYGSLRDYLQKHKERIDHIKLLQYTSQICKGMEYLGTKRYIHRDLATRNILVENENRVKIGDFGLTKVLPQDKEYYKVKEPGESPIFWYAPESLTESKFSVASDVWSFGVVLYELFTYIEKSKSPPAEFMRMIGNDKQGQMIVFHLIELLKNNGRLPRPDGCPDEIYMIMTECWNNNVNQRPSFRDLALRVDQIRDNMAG
Protocol: Example A. JAK2 LanthaScreen […] Binding Assay
JAK2 JH1 binding assay utilizes catalytic domain (JH1, amino acids 826-1132) of human JAK2 expressed as N-terminal FLAG-tagged, biotinylated protein in a baculovirus expression system (Carna Biosciences, Product #08-445-20N). The assay was conducted in black 384-well polystyrene plates in a final reaction volume of 20 μL. JAK2 JH1 (1.5 nM) was incubated with compounds (100 nL serially diluted in DMSO) in the presence of 50 nM fluorescent JAK2-JH1 tracer and 0.5 nM Streptavidin-Tb cryptate (Cisbio Part #610SATLB) in assay buffer (50 mM Tris, pH=7.5, 10 mM MgCl2, 0.01% Brij-35, 0.1% BSA, 1 mM EGTA, 5% Glycerol and 5 mM DTT). Non-specific binding was accessed in the presence of 2 mM ATP. After incubation for 2 hours at 25° C., LanthaScreen signals were read on a PHERAstar FS plate reader (BMG LABTECH). Data was analyzed with IDBS XLfit and GraphPad Prism 5.0 software using a four parameter dose response curve to determine IC50 for each compound.

SMILES | IC50 [1] | IC50 [2] | IC50 [3]
CC(C)n1ncc2cc(-c3c(-c4cnn(C)c4)[nH]c4ncc5c(c34)N([C@H]3C[C@@H](NS(C)(=O)=O)C3)C(=O)NC5)ccc21 [Example 6, N-((1s,3s)-3-(9-(1-Isopropyl-1H-indazol-5-yl)-8-(1-methyl-1H-pyrazol-4-yl)-2-oxo-2,3,4,7-tetrahydro-1H-pyrrolo[3′,2′:5,6]pyrido[4,3-d]pyrimidin-1-yl)cyclobutyl) methanesulfonamide] | ≤ 10 nM | 10 to 100 nM | 100 to 500 nM
COC(=O)N[C@@H]1CC[C@@H](n2c(=O)nc(OC)c3cnc4[nH]c(-c5cnn(C)c5)c(-c5ccc6c(cnn6C(C)C)c5)c4c32)C1 [Example 40, Methyl ((1R,3R)-3-(9-(1-isopropyl-1H-indazol-5-yl)-4-methoxy-8-(1-methyl-1H-pyrazol-4-yl)-2-oxo-2,7-dihydro-1H-pyrrolo[3′,2′:5,6]pyrido[4,3-d]pyrimidin-1-yl)cyclopentyl)carbamate] | 10 to 100 nM | 100 to 500 nM | > 1000 nM
COC(=O)N[C@H]1C[C@H](N2C(=O)NCc3cnc4[nH]c(C5=CCN(C)CC5)c(-c5ccc6c(cnn6C(C)C)c5)c4c32)C1 [Example 34, Methyl ((1r,3r)-3-(9-(1-isopropyl-1H-indazol-5-yl)-8-(1-methyl-1,2,3,6-tetra hydropyridin-4-yl)-2-oxo-2,3,4,7-tetrahydro-1H-pyrrolo[3′,2′:5,6]pyrido[4,3-d]pyrimidin-1-yl)cyclobutyl) carbamate] | 10 to 100 nM | 10 to 100 nM | > 1000 nM
CC(C)n1ncc2cc(-c3c(-c4cnn(C)c4)[nH]c4ncc5c(c34)N(C3CCN(S(C)(=O)=O)CC3)C(=O)NC5)ccc21 [Example 16, 9-(1-Isopropyl-1H-indazol-5-yl)-8-(1-methyl-1H-pyrazol-4-yl)-1-(1-(methylsulfonyl)piperidin-4-yl)-1,3,4,7-tetrahydro-2H-pyrrolo [3′,2′:5,6]pyrido[4,3-d]pyrimidin-2-one] | 10 to 100 nM | 10 to 100 nM | > 1000 nM
COC(=O)N[C@H]1C[C@H](N2C(=O)NCc3cnc4[nH]c(-c5cnn(C)c5)c(-c5ccc6c(cnn6C(C)C)c5)c4c32)C1 [Example 1, Methyl ((1r,3r)-3-(9-(1-isopropyl-1H-indazol-5-yl)-8-(1-methyl-1H-pyrazol-4-yl)-2-oxo-2,3,4,7-tetrahydro-1H-pyrrolo[3′,2′:5,6]pyrido[4,3-d]pyrimidin-1-yl)cyclobutyl)carbamate] | ≤ 10 nM | ≤ 10 nM | 100 to 500 nM
CC(C)n1ncc2cc(-c3c(-c4cnn(C)c4)[nH]c4ncc5c(c34)N([C@@H]3CC[C@@H](NC(=O)C4CC4)C3)C(=O)NC5)ccc21 [Example 11, N-((1R,3R)-3-(9-(1-Isopropyl-1H-indazol-5-yl)-8-(1-methyl-1H-pyrazol-4-yl)-2-oxo-2,3,4,7-tetrahydro-1H-pyrrolo[3′,2′:5,6]pyrido[4,3-d]pyrimidin-1-yl)cyclopentyl) cyclopropanecarboxamide] | 10 to 100 nM | 10 to 100 nM | > 1000 nM
COC(=O)N[C@H]1C[C@H](N2C(=O)NCc3cnc4[nH]c(-c5cc(C)nc(C)c5)c(-c5ccc6c(cnn6C(C)C)c5)c4c32)C1 [Example 35, Methyl ((1r,3r)-3-(8-(2,6-dimethylpyridin-4-yl)-9-(1-isopropyl-1H-indazol-5-yl)-2-oxo-2,3,4,7-tetrahydro-1H-pyrrolo[3′,2′:5,6]pyrido[4,3-d]pyrimidin-1-yl)cyclobutyl) carbamate] | 10 to 100 nM | 10 to 100 nM | > 1000 nM
COC(=O)N[C@@H]1CC[C@@H](n2c(=O)nc(N)c3cnc4[nH]c(-c5cnn(C)c5)c(-c5ccc6c(cnn6C(C)C)c5)c4c32)C1 [Example 41, Methyl ((1R,3R)-3-(4-amino-9-(1-isopropyl-1H-indazol-5-yl)-8-(1-methyl-1H-pyrazol-4-yl)-2-oxo-2,7-dihydro-1H-pyrrolo[3′,2′:5,6]pyrido[4,3-d]pyrimidin-1-yl)cyclopentyl)carbamate] | ≤ 10 nM | ≤ 10 nM | 500 to 1000 nM

From patent US20240300948A1, “Heterocyclic Compounds As Kinase Inhibitors” (Incyte Corporation, priority 2023, published 2024)
